“And” between values parts separate entries of the source, which are not always exact repeats. Equal entries are not always repeated.
Experiments:
Assay in all cases: Kinase inhibitor specificity profiling (Reaction Biology Corporation)
Assay type in all cases: biochemical
Parameters in all cases: % Enzyme Activity (relative to DMSO controls): concentration or dose not given beside the values
[1] = target: T1, panel of 370 protein kinases (Homo sapiens, UniProt P10721); settings: 2 h, kinase c-Kit; read-out: % Enzyme Activity (relative to DMSO controls)
T1 construct: purchased Reaction Biology Corporation (assay service)

[2] = target: T2, panel of 370 protein kinases (Homo sapiens, UniProt Q06187); settings: kinase BTK
T2 construct: purchased Reaction Biology Corporation (assay service)

[3] = target: T3, panel of 370 protein kinases (Homo sapiens, UniProt Q9NRM7); settings: kinase LATS2
T3 construct: purchased Reaction Biology Corporation (assay service)

[4] = target: T4, panel of 370 protein kinases (Homo sapiens, UniProt P23443); settings: 2 h, kinase p70S6K/RPS6KB1; read-out: % Enzyme Activity (relative to DMSO controls)
T4 construct: purchased Reaction Biology Corporation (assay service)

[5] = target: T5, panel of 370 protein kinases (Homo sapiens, UniProt Q14680); settings: 2 h, kinase MELK; read-out: % Enzyme Activity (relative to DMSO controls)
T5 construct: purchased Reaction Biology Corporation (assay service)

[6] = target: T6, panel of 370 protein kinases (Homo sapiens, UniProt Q15349); settings: 2 h, kinase RSK3; read-out: % Enzyme Activity (relative to DMSO controls)
T6 construct: purchased Reaction Biology Corporation (assay service)

[7] = target: T7, panel of 370 protein kinases (Homo sapiens, UniProt Q13237); settings: 2 h, kinase PKG2/PRKG2; read-out: % Enzyme Activity (relative to DMSO controls)
T7 construct: purchased Reaction Biology Corporation (assay service)

[8] = target: T8, panel of 370 protein kinases (Homo sapiens, UniProt Q16566); settings: 2 h, kinase CAMK4; read-out: % Enzyme Activity (relative to DMSO controls)
T8 construct: purchased Reaction Biology Corporation (assay service)

[9] = target: T9, panel of 370 protein kinases (Homo sapiens, UniProt P36894); settings: 2 h, kinase ALK3/BMPR1A; read-out: % Enzyme Activity (relative to DMSO controls)
T9 construct: purchased Reaction Biology Corporation (assay service)

[10] = target: T10, panel of 370 protein kinases (Homo sapiens, UniProt Q8IVH8); settings: kinase GLK/MAP4K3
T10 construct: purchased Reaction Biology Corporation (assay service)

[11] = target: T11, panel of 370 protein kinases (Homo sapiens, UniProt O75716); settings: 2 h, kinase STK16; read-out: % Enzyme Activity (relative to DMSO controls)
T11 construct: purchased Reaction Biology Corporation (assay service)

[12] = target: T12, panel of 370 protein kinases (Homo sapiens, UniProt Q6P5Z2); settings: kinase PKN3/PRK3
T12 construct: purchased Reaction Biology Corporation (assay service)

[13] = target: T13, panel of 370 protein kinases (Homo sapiens, UniProt Q15746); settings: 2 h, kinase MLCK/MYLK; read-out: % Enzyme Activity (relative to DMSO controls)
T13 construct: purchased Reaction Biology Corporation (assay service)

[14] = target: T14, panel of 370 protein kinases (Homo sapiens, UniProt P45985); settings: 2 h, kinase MKK4; read-out: % Enzyme Activity (relative to DMSO controls)
T14 construct: purchased Reaction Biology Corporation (assay service)

[15] = target: T15, panel of 370 protein kinases (Homo sapiens, UniProt Q08881); settings: kinase ITK
T15 construct: purchased Reaction Biology Corporation (assay service)

[16] = target: T16, panel of 370 protein kinases (Homo sapiens, UniProt P42685); settings: 2 h, kinase FRK/PTK5; read-out: % Enzyme Activity (relative to DMSO controls)
T16 construct: purchased Reaction Biology Corporation (assay service)

[17] = target: T17, panel of 370 protein kinases (Homo sapiens, UniProt Q13976); settings: 2 h, kinase PKG1a; read-out: % Enzyme Activity (relative to DMSO controls)
T17 construct: purchased Reaction Biology Corporation (assay service)

[18] = target: T18, panel of 370 protein kinases (Homo sapiens, UniProt P53778); settings: 2 h, kinase P38g; read-out: % Enzyme Activity (relative to DMSO controls)
T18 construct: purchased Reaction Biology Corporation (assay service)

[19] = target: T19, panel of 370 protein kinases (Homo sapiens, UniProt Q16513); settings: 2 h, kinase PKN2/PRK2; read-out: % Enzyme Activity (relative to DMSO controls)
T19 construct: purchased Reaction Biology Corporation (assay service)

[20] = target: T20, panel of 370 protein kinases (Homo sapiens, UniProt Q13470); settings: 2 h, kinase TNK1; read-out: % Enzyme Activity (relative to DMSO controls)
T20 construct: purchased Reaction Biology Corporation (assay service)

[21] = target: T21, panel of 370 protein kinases (Homo sapiens, UniProt Q96GX5); settings: kinase MASTL
T21 construct: purchased Reaction Biology Corporation (assay service)

[22] = target: T22, panel of 370 protein kinases (Homo sapiens, UniProt Q9Y243); settings: 2 h, kinase AKT3; read-out: % Enzyme Activity (relative to DMSO controls)
T22 construct: purchased Reaction Biology Corporation (assay service)

T15 sequence (Q08881 whole entry): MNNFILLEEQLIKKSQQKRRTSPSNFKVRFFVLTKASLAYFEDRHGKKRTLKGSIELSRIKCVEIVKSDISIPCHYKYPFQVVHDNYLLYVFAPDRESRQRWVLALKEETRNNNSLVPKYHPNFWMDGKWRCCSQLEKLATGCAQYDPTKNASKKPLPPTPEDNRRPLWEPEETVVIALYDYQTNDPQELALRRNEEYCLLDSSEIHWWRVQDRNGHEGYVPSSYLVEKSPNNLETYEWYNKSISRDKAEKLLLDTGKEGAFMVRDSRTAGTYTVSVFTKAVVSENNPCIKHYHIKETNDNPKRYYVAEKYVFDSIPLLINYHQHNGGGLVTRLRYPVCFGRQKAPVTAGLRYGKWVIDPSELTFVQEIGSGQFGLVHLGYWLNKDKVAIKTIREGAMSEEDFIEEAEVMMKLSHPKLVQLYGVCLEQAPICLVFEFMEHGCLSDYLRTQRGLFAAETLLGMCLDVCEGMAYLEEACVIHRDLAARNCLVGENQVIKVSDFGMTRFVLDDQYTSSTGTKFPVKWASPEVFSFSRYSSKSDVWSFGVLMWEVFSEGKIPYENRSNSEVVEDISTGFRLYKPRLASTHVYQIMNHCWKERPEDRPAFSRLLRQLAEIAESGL
T21 sequence (Q96GX5 whole entry): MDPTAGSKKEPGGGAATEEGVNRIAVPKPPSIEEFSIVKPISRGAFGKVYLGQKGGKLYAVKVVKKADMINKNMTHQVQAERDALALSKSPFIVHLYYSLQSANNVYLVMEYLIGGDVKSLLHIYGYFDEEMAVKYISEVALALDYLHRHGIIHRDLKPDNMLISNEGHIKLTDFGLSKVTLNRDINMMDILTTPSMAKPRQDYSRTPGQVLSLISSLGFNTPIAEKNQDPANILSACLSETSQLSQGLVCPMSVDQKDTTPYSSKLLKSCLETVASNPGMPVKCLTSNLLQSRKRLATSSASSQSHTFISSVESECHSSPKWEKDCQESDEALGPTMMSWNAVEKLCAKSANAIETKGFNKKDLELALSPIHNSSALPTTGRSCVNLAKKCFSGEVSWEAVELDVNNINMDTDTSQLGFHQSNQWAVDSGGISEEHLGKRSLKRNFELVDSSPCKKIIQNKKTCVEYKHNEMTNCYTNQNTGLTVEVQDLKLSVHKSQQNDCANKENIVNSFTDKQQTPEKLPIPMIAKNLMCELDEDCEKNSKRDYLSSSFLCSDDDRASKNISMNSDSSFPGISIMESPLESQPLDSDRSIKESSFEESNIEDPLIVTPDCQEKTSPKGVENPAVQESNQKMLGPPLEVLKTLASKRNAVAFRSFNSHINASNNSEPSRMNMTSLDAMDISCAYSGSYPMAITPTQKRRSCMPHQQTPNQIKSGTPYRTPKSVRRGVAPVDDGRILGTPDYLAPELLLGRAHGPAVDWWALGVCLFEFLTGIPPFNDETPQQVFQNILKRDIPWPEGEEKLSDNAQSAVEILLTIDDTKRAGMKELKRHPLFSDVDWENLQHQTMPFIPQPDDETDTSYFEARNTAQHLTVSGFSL
T12 sequence (Q6P5Z2 whole entry): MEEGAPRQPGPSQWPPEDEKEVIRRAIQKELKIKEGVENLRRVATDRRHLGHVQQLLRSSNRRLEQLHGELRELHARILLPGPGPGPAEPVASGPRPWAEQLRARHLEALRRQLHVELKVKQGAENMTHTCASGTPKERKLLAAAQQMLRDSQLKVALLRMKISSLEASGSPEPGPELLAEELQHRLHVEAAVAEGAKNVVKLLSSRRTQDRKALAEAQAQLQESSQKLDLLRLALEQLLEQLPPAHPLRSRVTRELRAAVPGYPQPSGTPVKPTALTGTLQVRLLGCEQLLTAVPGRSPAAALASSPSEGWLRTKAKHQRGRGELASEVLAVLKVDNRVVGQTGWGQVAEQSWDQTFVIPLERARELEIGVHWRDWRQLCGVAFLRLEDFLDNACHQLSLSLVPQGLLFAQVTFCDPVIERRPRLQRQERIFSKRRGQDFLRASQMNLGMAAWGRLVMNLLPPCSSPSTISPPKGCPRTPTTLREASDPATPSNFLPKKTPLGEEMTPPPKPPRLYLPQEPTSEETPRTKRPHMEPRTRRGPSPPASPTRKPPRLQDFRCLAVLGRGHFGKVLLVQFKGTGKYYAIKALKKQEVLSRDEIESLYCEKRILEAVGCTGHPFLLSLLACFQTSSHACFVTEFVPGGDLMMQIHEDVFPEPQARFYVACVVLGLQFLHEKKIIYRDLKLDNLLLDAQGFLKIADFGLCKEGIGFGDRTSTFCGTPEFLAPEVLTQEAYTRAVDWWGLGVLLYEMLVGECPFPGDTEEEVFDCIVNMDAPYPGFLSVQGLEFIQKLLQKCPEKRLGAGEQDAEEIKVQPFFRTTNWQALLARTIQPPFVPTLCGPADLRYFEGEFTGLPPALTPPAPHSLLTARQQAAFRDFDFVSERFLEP
T3 sequence (Q9NRM7 whole entry): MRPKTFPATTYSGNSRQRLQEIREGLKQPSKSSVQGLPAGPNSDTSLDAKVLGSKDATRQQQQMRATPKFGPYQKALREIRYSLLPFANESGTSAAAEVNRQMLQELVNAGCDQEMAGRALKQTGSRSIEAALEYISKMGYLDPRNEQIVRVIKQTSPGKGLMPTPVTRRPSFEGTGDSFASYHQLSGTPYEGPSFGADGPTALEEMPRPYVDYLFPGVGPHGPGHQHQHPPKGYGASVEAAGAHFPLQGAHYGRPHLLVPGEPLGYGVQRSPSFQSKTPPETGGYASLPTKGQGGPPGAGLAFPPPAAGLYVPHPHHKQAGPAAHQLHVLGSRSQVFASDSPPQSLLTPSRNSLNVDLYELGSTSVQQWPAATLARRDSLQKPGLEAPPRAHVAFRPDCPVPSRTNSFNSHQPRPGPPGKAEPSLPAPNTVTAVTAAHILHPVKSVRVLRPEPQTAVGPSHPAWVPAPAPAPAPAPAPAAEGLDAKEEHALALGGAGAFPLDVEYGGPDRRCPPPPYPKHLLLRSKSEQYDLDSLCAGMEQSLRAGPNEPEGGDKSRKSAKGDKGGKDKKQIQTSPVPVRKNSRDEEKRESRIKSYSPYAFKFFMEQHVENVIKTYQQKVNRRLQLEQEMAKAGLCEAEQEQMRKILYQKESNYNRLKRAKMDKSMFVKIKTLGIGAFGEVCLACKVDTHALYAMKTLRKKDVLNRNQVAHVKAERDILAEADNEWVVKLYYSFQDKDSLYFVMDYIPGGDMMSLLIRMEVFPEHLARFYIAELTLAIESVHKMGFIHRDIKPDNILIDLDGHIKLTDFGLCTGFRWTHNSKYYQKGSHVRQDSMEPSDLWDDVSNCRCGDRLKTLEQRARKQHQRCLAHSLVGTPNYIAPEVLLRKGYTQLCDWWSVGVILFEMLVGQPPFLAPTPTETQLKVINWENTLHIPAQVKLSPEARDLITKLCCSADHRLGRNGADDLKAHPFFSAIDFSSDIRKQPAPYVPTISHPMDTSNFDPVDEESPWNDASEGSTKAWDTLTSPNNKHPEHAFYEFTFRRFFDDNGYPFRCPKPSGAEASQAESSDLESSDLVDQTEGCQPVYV
T2 sequence (Q06187 whole entry): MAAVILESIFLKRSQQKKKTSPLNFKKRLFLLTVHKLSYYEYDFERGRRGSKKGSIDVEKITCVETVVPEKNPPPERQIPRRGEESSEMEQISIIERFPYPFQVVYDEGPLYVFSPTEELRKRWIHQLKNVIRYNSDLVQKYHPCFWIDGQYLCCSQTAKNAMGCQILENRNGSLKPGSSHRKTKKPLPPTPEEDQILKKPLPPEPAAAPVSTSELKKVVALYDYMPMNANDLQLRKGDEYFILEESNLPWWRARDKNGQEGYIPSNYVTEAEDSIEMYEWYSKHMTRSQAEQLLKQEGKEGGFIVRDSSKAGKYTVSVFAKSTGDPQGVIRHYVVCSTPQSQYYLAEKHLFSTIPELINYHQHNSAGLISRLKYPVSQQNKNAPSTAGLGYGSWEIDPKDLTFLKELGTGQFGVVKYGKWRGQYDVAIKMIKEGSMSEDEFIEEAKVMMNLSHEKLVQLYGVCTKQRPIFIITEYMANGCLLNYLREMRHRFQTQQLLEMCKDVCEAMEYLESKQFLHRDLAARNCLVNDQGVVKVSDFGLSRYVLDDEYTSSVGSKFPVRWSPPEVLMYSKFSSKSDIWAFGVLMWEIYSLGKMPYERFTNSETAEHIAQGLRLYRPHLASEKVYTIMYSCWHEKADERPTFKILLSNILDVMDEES
T10 sequence (Q8IVH8 whole entry): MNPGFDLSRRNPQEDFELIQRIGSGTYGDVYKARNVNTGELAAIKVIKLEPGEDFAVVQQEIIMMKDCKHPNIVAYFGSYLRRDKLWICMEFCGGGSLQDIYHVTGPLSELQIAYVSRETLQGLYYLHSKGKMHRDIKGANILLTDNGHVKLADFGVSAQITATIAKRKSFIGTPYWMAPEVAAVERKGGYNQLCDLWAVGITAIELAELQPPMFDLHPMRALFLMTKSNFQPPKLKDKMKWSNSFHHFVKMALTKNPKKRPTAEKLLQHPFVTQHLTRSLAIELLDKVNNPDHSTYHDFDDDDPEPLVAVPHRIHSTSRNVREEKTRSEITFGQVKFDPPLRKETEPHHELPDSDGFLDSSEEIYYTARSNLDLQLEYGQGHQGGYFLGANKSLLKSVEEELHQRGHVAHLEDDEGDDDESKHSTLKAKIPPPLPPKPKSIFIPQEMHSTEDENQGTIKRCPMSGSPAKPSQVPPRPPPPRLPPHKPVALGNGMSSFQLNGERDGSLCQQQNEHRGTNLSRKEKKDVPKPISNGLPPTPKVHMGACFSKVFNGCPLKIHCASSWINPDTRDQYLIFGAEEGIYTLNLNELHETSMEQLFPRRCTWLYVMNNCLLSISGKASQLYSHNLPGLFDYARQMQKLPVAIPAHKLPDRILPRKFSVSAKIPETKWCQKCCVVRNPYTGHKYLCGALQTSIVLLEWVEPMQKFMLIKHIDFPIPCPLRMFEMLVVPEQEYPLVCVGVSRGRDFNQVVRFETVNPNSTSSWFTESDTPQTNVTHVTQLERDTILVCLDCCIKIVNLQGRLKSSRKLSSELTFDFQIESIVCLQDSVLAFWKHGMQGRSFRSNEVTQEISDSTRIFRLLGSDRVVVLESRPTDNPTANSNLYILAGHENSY

Structure (SMILES): CCN1CCN(C(=O)c2ccc(Nc3ncc(F)c(-c4ccc5nc(N(C)C)sc5c4)n3)nc2)CC1 [YK-2-69]
- remaining activity at 1 µM [1]: 94%
- % Enzyme Activity (relative to DMSO controls) [2]: 90.26% and 87.58%
- % Enzyme Activity (relative to DMSO controls) [3]: 96.27% and 92.88%
- remaining activity at 1 µM [4]: 99.7%
- remaining activity at 1 µM [5]: 101%
- remaining activity at 1 µM [6]: 104%
- remaining activity at 1 µM [7]: 94.6%
- remaining activity at 1 µM [8]: 101%
- remaining activity at 1 µM [9]: 168%
- % Enzyme Activity (relative to DMSO controls) [10]: 96.94% and 93.55%
- remaining activity at 1 µM [11]: 57.5%
- % Enzyme Activity (relative to DMSO controls) [12]: 103.56% and 103.10%
- remaining activity at 1 µM [13]: 97.5%
- remaining activity at 1 µM [14]: 87.2%
- % Enzyme Activity (relative to DMSO controls) [15]: 117.90% and 109.49%
- remaining activity at 1 µM [16]: 108%
- remaining activity at 1 µM [17]: 92.2%
- remaining activity at 1 µM [18]: 98.1%
- remaining activity at 1 µM [19]: 88.4%
- remaining activity at 1 µM [20]: 95.3%
- % Enzyme Activity (relative to DMSO controls) [21]: 100.08% and 99.24%
- remaining activity at 1 µM [22]: 88.2%

— paper PMC9133015 (Nature Communications, 2022)
